Source: the NIST ThermoML archive (doi:10.1021/je060271a)
“And” between values parts separate entries of the source, which are not always exact repeats. Identical values can stand only once.

Settings: Liquid, Vibrating tube method

CCCCC(=O)OCC(COC(=O)CCCC)(COC(=O)CCCC)COC(=O)CCCC [pentaerythritol tetrapentanoate]
Settings	mass density
323.15 K, 31189 kPa	1015 kg/m3
323.15 K, 31223 kPa	1015.1 kg/m3
323.15 K, 31256 kPa	1015.1 kg/m3
323.15 K, 31290 kPa	1015.1 kg/m3
323.15 K, 31330 kPa	1015.1 kg/m3
323.15 K, 31363 kPa	1015 kg/m3
323.15 K, 31397 kPa	1015.2 kg/m3
323.15 K, 31438 kPa	1015.2 kg/m3
323.15 K, 31473 kPa	1015.2 kg/m3
323.15 K, 31507 kPa	1015.2 kg/m3
323.15 K, 31540 kPa	1015.3 kg/m3
323.15 K, 31581 kPa	1015.3 kg/m3
323.15 K, 31615 kPa	1015.4 kg/m3
323.15 K, 31649 kPa	1015.3 kg/m3
323.15 K, 31689 kPa	1015.3 kg/m3
323.15 K, 31724 kPa	1015.3 kg/m3
323.15 K, 31758 kPa	1015.3 kg/m3
323.15 K, 31794 kPa	1015.4 kg/m3
323.15 K, 31834 kPa	1015.5 kg/m3
323.15 K, 31869 kPa	1015.4 kg/m3
323.15 K, 31914 kPa	1015.4 kg/m3
323.15 K, 31941 kPa	1015.6 kg/m3
323.15 K, 31982 kPa	1015.4 kg/m3
323.15 K, 32017 kPa	1015.6 kg/m3
323.15 K, 32052 kPa	1015.6 kg/m3
323.15 K, 32093 kPa	1015.7 kg/m3
323.15 K, 32128 kPa	1015.6 kg/m3
323.15 K, 32170 kPa	1015.7 kg/m3
323.15 K, 32206 kPa	1015.7 kg/m3
323.15 K, 32240 kPa	1015.6 kg/m3
323.15 K, 32283 kPa	1015.7 kg/m3
323.15 K, 32318 kPa	1015.7 kg/m3
323.15 K, 32354 kPa	1015.8 kg/m3
323.15 K, 32398 kPa	1015.8 kg/m3
323.15 K, 32434 kPa	1015.8 kg/m3
323.15 K, 32470 kPa	1015.8 kg/m3
323.15 K, 32513 kPa	1015.7 kg/m3
323.15 K, 32550 kPa	1015.9 kg/m3
323.15 K, 32586 kPa	1015.9 kg/m3
323.15 K, 32623 kPa	1015.9 kg/m3
323.15 K, 32666 kPa	1016 kg/m3
323.15 K, 32701 kPa	1016 kg/m3
323.15 K, 32745 kPa	1015.9 kg/m3
323.15 K, 32782 kPa	1016.1 kg/m3
323.15 K, 32820 kPa	1016 kg/m3
323.15 K, 32864 kPa	1016.1 kg/m3
323.15 K, 32902 kPa	1016 kg/m3
323.15 K, 32939 kPa	1016.1 kg/m3
323.15 K, 32977 kPa	1016.1 kg/m3
323.15 K, 33022 kPa	1016.1 kg/m3
323.15 K, 33058 kPa	1016.2 kg/m3
323.15 K, 33096 kPa	1016.1 kg/m3
323.15 K, 33141 kPa	1016.2 kg/m3
323.15 K, 33179 kPa	1016.3 kg/m3
323.15 K, 33224 kPa	1016.3 kg/m3
323.15 K, 33262 kPa	1016.2 kg/m3
323.15 K, 33300 kPa	1016.2 kg/m3
323.15 K, 33338 kPa	1016.3 kg/m3
323.15 K, 33384 kPa	1016.4 kg/m3
323.15 K, 33423 kPa	1016.4 kg/m3
323.15 K, 33462 kPa	1016.3 kg/m3
323.15 K, 33508 kPa	1016.5 kg/m3
323.15 K, 33546 kPa	1016.4 kg/m3
323.15 K, 33593 kPa	1016.5 kg/m3
323.15 K, 33633 kPa	1016.5 kg/m3
323.15 K, 33672 kPa	1016.4 kg/m3
323.15 K, 33712 kPa	1016.4 kg/m3
323.15 K, 33760 kPa	1016.6 kg/m3
323.15 K, 33800 kPa	1016.5 kg/m3
323.15 K, 33841 kPa	1016.5 kg/m3
323.15 K, 33890 kPa	1016.6 kg/m3
323.15 K, 33934 kPa	1016.6 kg/m3
323.15 K, 33978 kPa	1016.7 kg/m3
323.15 K, 34031 kPa	1016.8 kg/m3
323.15 K, 34078 kPa	1016.7 kg/m3
323.15 K, 34125 kPa	1016.7 kg/m3
323.15 K, 34165 kPa	1016.8 kg/m3
323.15 K, 34193 kPa	1016.8 kg/m3
323.15 K, 34215 kPa	1016.8 kg/m3
323.15 K, 34242 kPa	1016.9 kg/m3
323.15 K, 34266 kPa	1016.9 kg/m3
323.15 K, 34294 kPa	1016.8 kg/m3
323.15 K, 34311 kPa	1016.8 kg/m3
323.15 K, 34334 kPa	1016.9 kg/m3
323.15 K, 34359 kPa	1017 kg/m3
323.15 K, 34383 kPa	1016.9 kg/m3
323.15 K, 34414 kPa	1017 kg/m3
323.15 K, 34441 kPa	1016.9 kg/m3
323.15 K, 34467 kPa	1016.9 kg/m3
323.15 K, 34492 kPa	1017 kg/m3
323.15 K, 34493 kPa	1017.1 kg/m3
323.15 K, 34495 kPa	1017 kg/m3
323.15 K, 34498 kPa	1017 kg/m3
323.15 K, 34500 kPa	1017.1 kg/m3
323.15 K, 34502 kPa	1017.1 kg/m3
323.15 K, 34504 kPa	1017.1 kg/m3
323.15 K, 34507 kPa	1017.1 kg/m3
323.15 K, 34510 kPa	1017 kg/m3
343.14 K, 4331.4 kPa	981.8 kg/m3
343.14 K, 4369.7 kPa	981.9 kg/m3
343.14 K, 4403.1 kPa	981.9 kg/m3
343.14 K, 4438.3 kPa	981.9 kg/m3
343.14 K, 4480.3 kPa	982 kg/m3
343.14 K, 4516.3 kPa	982 kg/m3
343.14 K, 4553 kPa	982.1 kg/m3
343.14 K, 4648.1 kPa	982.1 kg/m3
343.14 K, 4649.8 kPa	982.1 kg/m3
343.14 K, 4651.7 kPa	982.2 kg/m3
343.14 K, 4656 kPa	982.2 kg/m3
343.14 K, 4659.5 kPa	982 kg/m3
343.14 K, 4659.7 kPa	982.3 kg/m3 and 982.2 kg/m3
343.14 K, 4661.6 kPa	982.1 kg/m3
343.14 K, 4661.9 kPa	982 kg/m3
343.14 K, 4662.1 kPa	982.1 kg/m3 and 982 kg/m3
343.14 K, 4662.3 kPa	982.1 kg/m3
343.14 K, 4662.4 kPa	982.2 kg/m3
343.14 K, 4662.6 kPa	982.1 kg/m3
343.14 K, 4662.8 kPa	982.1 kg/m3
343.14 K, 4663.1 kPa	982.1 kg/m3
343.14 K, 4671.9 kPa	982.1 kg/m3
343.14 K, 4688.2 kPa	982 kg/m3
343.14 K, 4712.1 kPa	982.2 kg/m3
343.14 K, 4732.7 kPa	982.3 kg/m3
343.14 K, 4774.6 kPa	982.2 kg/m3
343.14 K, 4799.7 kPa	982.2 kg/m3
343.14 K, 4821 kPa	982.3 kg/m3
343.14 K, 4842.3 kPa	982.4 kg/m3
343.14 K, 4868.4 kPa	982.4 kg/m3
343.14 K, 4886.2 kPa	982.3 kg/m3
343.14 K, 4912.7 kPa	982.3 kg/m3
343.14 K, 21139 kPa	994 kg/m3
343.14 K, 21166 kPa	994 kg/m3
343.14 K, 21194 kPa	994.3 kg/m3
343.14 K, 21221 kPa	994 kg/m3
343.14 K, 21398 kPa	994.3 kg/m3
343.14 K, 21431 kPa	994.3 kg/m3
343.14 K, 21460 kPa	994.4 kg/m3
343.14 K, 21488 kPa	994.4 kg/m3
343.14 K, 21522 kPa	994.5 kg/m3
343.14 K, 21550 kPa	994.3 kg/m3
343.14 K, 21578 kPa	994.5 kg/m3
343.14 K, 21611 kPa	994.5 kg/m3
343.14 K, 21640 kPa	994.4 kg/m3
343.14 K, 21669 kPa	994.4 kg/m3
343.14 K, 21702 kPa	994.5 kg/m3
343.14 K, 21732 kPa	994.4 kg/m3
343.14 K, 21760 kPa	994.6 kg/m3
343.14 K, 21795 kPa	994.6 kg/m3
343.14 K, 21825 kPa	994.6 kg/m3
343.14 K, 21856 kPa	994.6 kg/m3
343.14 K, 21885 kPa	994.7 kg/m3
343.14 K, 21920 kPa	994.7 kg/m3
343.14 K, 21949 kPa	994.6 kg/m3
343.14 K, 21979 kPa	994.6 kg/m3
343.14 K, 22008 kPa	994.7 kg/m3
343.14 K, 22044 kPa	994.8 kg/m3
343.14 K, 22073 kPa	994.7 kg/m3
343.14 K, 22109 kPa	994.9 kg/m3
343.14 K, 22139 kPa	994.8 kg/m3
343.14 K, 22169 kPa	994.8 kg/m3
